Patent US20220023433A1, “Saponin Conjugates” (Sapreme Technologies B.V., priority 2018, published 2022)

Legend:
breast cancer = conditions: preclinical models of breast cancer; cited from earlier work
HeLa cells = assay: Cell viability assay (MTS): co-administration with SO1861 and dianthin-EGF, inhibition of SO1861-mediated endosomal escape; format: cell-based, human; conditions: 500 nM test substance + SO1861 concentration curve + […] dianthin-EGF, 72 hr
Description: HeLa cells were seeded in DMEM (PAN-Biotech GmbH) supplemented with 10% fetal bovine serum (PAN-Biotech GmbH) and 1% penicillin/streptomycin (PAN-Biotech GmbH), in a 96 well plate at 5,000 c/w in 100 μL/well and incubated overnight at 37° C. and 5% CO2. The next day 20× concentrated stocks of the PAMAM, PAMAM-conjugates, G4-dendron (prepared in Example 3) or chloroquine (Sigma Aldrich) samples were prepared in DMEM. The media was removed from the cell culture plate and replaced by […] culture media, followed by the addition of 10 μL sample/well (from the 20× concentrated stocks) and a 45 min incubation at 37° C. […] Followed by 15 sec sonication and a brief re-heating at 50° C. for 1 min, while shaking at 1,250 rpm. Subsequently a serial dilution of SO1861 was prepared in PBS.
As control for the inhibition of endosomal acidification chloroquine was used.

[1] = pH dependent hydrolysis of the hydrazone bond followed by MALDI-TOF-MS; format: physicochemical; conditions: HCl solution at pH 3; MALDI-TOF-MS at two points in time

In the case of ado-trastuzumab emtansine, the “dose levels inducing tumor regression” value (breast cancer) is listed as no less than 3 mg/kg.
In the case of `CCN(CC)CCCC(C)Nc1ccnc2cc(Cl)ccc12` (stereo not drawn) [chloroquine], the “inhibition of SO1861-mediated endosomal escape of the targeted toxin and subsequent cell killing” value (HeLa cells) is reported as “inhibit the SO1861-mediated endosomal escape of the targeted toxin and subsequent cell killing”.
For `CC(=O)OC1C(C)OC(OC2C(C)OC(OC(=O)[C@]34CCC(C)(C)CC3C3=CCC5[C@@]6(C)CC[C@H](OC7OC(C(=O)O)C(O)C(OC8OCC(O)C(O)C8O)C7OC7OC(CO)C(O)C(O)C7O)[C@@](C)(/C=N/NC(=O)CCCCCN7C(=O)C=CC7=O)C6CC[C@@]5(C)[C@]3(C)C[C@H]4O)C(OC3OC(C)C(OC4OCC(O)C(OC5OC(CO)C(O)C(O)C5O)C4O)C(O)C3O)C2O)C(O)C1OC1OCC(O)C(O)C1O` (stereo partly drawn) [SO1861-EMCH], the “hydrolysis of the hydrazone bond” value [1] was “the hydrazone bond is responsive towards hydrolysis and gets cleaved”.
